Literature values, collected in patent publication US10543184B2, “Method to treat functional somatic syndromes with combination of aciclovir and celecoxib” (INNOVATIVE MED CONCEPTS, LLC, priority 2012, dated 2020).

Tested on: fibromyalgia patients
Conditions: Kendall et al., J. Rheumatology (2004) 31, 783-784

SMILES: CC(C)[C@H](N)C(=O)OCCOCn1cnc2c(=O)[nH]c(N)nc21 [valacyclovir]
- Outcome of treating fibromyalgia patients: not successful
